Laboratory results reported in publication PMC13357423 (Frontiers in Microbiology, 2026).
≈ marks a conversion by molar mass, not a printed value. Entries after “also recorded” stand apart in the source; their conditions may differ. Like-named read-outs stand apart in the source and are kept apart here.

How the values were obtained:
Mtb H37Rv [1] = assay: microbe, parasite or virus in culture; assay type: cell-based; details: Mycobacterium tuberculosis, read-out: MIC BDQ values in six carbon sources
Mtb Rv0678 RAVs = test system: Mtb Rv0678 RAVs; set-up: method as in Sonnenkalb et al., 2023; Villellas et al., 2017; details: Rv0678 RAVs in baseline isolates of MDR-TB patients; ref Sonnenkalb et al., 2023; Villellas et al., 2017; cited from earlier work
M. tuberculosis = test system: M. tuberculosis; set-up: method as in Lounis et al. (2016); details: polypropylene plates in comparison with polystyrene; ref Lounis et al. (2016); cited from earlier work
[2] = Effect of tyloxapol on TBAJ-587 recovery in ST broth without bacteria; assay type: physicochemical; details: ST broth with vs without tyloxapol, no bacteria, polystyrene flasks, 28 days
Protocol: A low (0.16 mg/L) and a high concentration (1.6 mg/L) were tested and samples taken and quantified at 0, 1, 10 and 28 days after compound addition. Parallel conditions with propranolol (2 μM and 0.2 μm) were included as a drug control; two time-points were sampled for quantification at days 0 and 28 after compound addition. All 648 samples were measured in technical duplicates and verapamil was used as internal standard.

Mtb H37Rv [3] = assay: Dose response time kill assays (TKA), CFU enumeration; assay type: cell-based, Mycobacterium tuberculosis
[4] = test system: regrowth TKA isolates (Mtb H37Rv); assay: microbe, parasite or virus in culture; assay type: cell-based, Mycobacterium tuberculosis; details: for MIC: Mycobacterium tuberculosis
[5] = concentrations equal or higher than 5x MIC

SMILES	MIC (Mtb H37Rv [1]) [mg/L]	increase in MIC (Mtb Rv0678 RAVs)	increase in the MIC (M. tuberculosis) [fold]	effect of 0.05% tyloxapol on recovery [2]	effect in TKA (Mtb H37Rv [3]; 1x MIC and 2x MIC)	bacterial regrowth (Mtb H37Rv [3]; 1x MIC and 2x MIC, day 28)	bacterial regrowth after 28 days of treatment (Mtb H37Rv [3]; [5])	time to cleared cultures (bacterial counts under the limit of quantification) (Mtb H37Rv [3]; [5]) [days]	effect in TKA (Mtb H37Rv [3]; concentrations equal to and above 5x MIC)	MIC increase compared to the wild-type baseline [4] [fold]	MIC ([4]; H37RV) [mg/L]	MIC ([4]; read-out: MIC values for TBAJ-587, all regrowth isolates) [mg/L]
COc1nc2ccc(Br)cc2cc1[C@@H](c1ccccc1)[C@@](O)(CCN(C)C)c1cccc2ccccc12 [BDQ, bedaquiline]	0.063 to 0.25 (≈ 0.113 to 0.45 µM)	2–8 fold	4									
CC(C)NCC(O)COc1cccc2ccccc12 (stereo not shown) [Propranolol, propranolol, reference compound]				did not affect its recovery								
COc1cc([C@](O)(CCN(C)C)[C@@H](c2cc3cc(Br)ccc3nc2OC)c2cccc(OC)c2F)cc(OC)n1 [TBAJ-587]				higher TBAJ-587 recovery	bacteriostatic effect	resumed growth after 28 days; also recorded: bacterial regrowth by day 28	without bacterial regrowth	≤ 7	bactericidal effect	4	0.125 (≈ 0.203 µM)	0.125 to 0.25 (≈ 0.203 to 0.407 µM)
